From US9233979B2, “Compounds that are ERK inhibitors” (Merck Sharp & Dohme Corp., priority 2012, dated 2016) come the findings set out here.

By IC50 is commonly meant the concentration needed to halve the response being measured.

phosphorylated active hERK2 enzyme, sequence (P28482 whole entry): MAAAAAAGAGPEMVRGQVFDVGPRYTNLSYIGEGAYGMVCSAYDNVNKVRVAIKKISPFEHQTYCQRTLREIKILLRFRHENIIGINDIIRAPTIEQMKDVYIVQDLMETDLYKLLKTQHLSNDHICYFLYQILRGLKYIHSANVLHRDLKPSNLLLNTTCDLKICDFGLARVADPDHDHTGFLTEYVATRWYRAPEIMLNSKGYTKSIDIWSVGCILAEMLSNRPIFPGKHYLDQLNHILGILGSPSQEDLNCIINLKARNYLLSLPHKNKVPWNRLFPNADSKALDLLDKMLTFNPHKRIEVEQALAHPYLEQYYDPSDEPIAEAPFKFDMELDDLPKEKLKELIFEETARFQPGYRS

In one experiment the target is phosphorylated active hERK2 enzyme (Homo sapiens (Human), UniProt P28482). The experiment in a line: Active Human ERK2 (hERK2) Activity Assay (IMAP-FP). The experiment is classed as biochemical. The settings on record: Table 5, 0.5 nM hERK2, 30 μM ATP, 10 point titration, read-out: AERK2 IC50. In outline:
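IMAP fluorescence-polarization kinase assay: 0.5 nM activated hERK2 with 900 nM unlabeled plus 80 nM labeled peptide and 30 μM ATP, reacted 60 min. Quenched with IMAP beads in binding buffer with 24 mM NaCl; FP read after 60 min equilibration.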
As for `CCNc1n[nH]c2c(F)c(NC(=O)N[C@H](C)c3ccccc3)ncc12` [Example 57, (R)-1-(3-(Ethylamino)-7-fluoro-1H-pyrazolo[4,3-c]pyridin-6-yl)-3-(1-phenylethyl)urea], the IC50 was determined as 3.05 nM.

Regarding `CO[C@H](C)CNC(=O)Nc1cc2[nH]nc(N3CCOCC3)c2cn1` [Example 16, 1-[(2R)-2-methoxypropyl]-3-(3-morpholin-4-yl-1H-pyrazolo[4,3-c]pyridin-6-yl)urea], the 50% inhibitory concentration (IC50) was 20.6 nM.

The experiment is the same for the next values; noted with them: Table 6, 0.5 nM hERK2, 30 μM ATP, 10 point titration, read-out: AERK2 IC50.
For the molecule `CC(C)(O)[C@@H](NC(=O)Nc1cc2[nH]nc3c2c(n1)CCN3)c1ccccc1` [Example 137, (S)-1-(2-hydroxy-2-methyl-1-phenylpropyl)-3-(1,3,4,5-tetrahydropyrazolo[3,4,5-de][1,6]naphthyridin-7-yl)urea], the IC50 turned out to be 1.3 nM.

Turning to `COC(=O)Nc1n[nH]c2cc(NC(=O)N[C@@H](c3ccccc3)[C@H]3CCCO3)ncc12` [Example 290, methyl {6-[({(S)-phenyl[(2R)-tetra-hydrofuran-2-yl]-methyl}carbamoyl)amino]-1H-pyrazolo[4,3-c]-pyridin-3-yl}-carbamate], the half-inhibitory concentration (IC50) was 0.6 nM.

For `COC[C@@H](NC(=O)Nc1cc2[nH]nc(NC3CCOCC3)c2cn1)c1ccccc1` [Example 328, 1-[(1S)-2-methoxy-1-phenylethyl]-3-[3-(tetrahydro-2H-pyran-4-ylamino)-1H-pyrazolo[4,3-c]pyridin-6-yl]urea], the IC50 was 0.8 nM.

Regarding `C[C@H](O)[C@@H](NC(=O)Nc1cc2[nH]nc(N3CCc4ncsc4C3)c2cn1)c1ccccc1` [Example 388, 1-[3-(6,7-dihydro[1,3]-thiazolo[5,4-c]pyridin-5(4H)-yl)-1H-pyrazolo[4,3-c]-pyridin-6-yl]-3-[(1S,2S)-2-hydroxy-1-phenylpropyl]urea], the half-maximal inhibitory concentration (IC50) stood at 34.6 nM. In the case of `C[C@@H](NC(=O)Nc1cc2[nH]nc(N)c2c(CO)n1)c1ccccc1` [Example 68, (R)-1-(3-amino-4-(hydroxymethyl)-1H-pyrazolo[4,3-c]pyridin-6-yl)-3-(1-phenylethyl)urea], the IC50 was 0.5 nM. On the same count and under the same terms, the same measure for `C[C@@H](NC(=O)Nc1cc2[nH]nc(NC(=O)OCC(F)F)c2cn1)c1ccc(F)cc1` [Example 405, 2,2-difluoroethyl [6-({[(1R)-1-(4-fluorophenyl)ethyl]carbamoyl}amino)-1H-pyrazolo[4,3-c]pyridin-3-yl]-carbamate]: 21.6 nM. On the same count and under the same terms, the same measure for `C[C@@H](NC(=O)Nc1cc2[nH]nc(N3CCc4nn(C)cc4C3)c2cn1)c1ccc(F)cc1` [Example 391, 1-[(1R)-1-(4-fluorophenyl)ethyl]-3-(2′-methyl-2′,4′,6′,7′-tetrahydro-1H-3,5′-bipyrazolo[4,3-c]-pyridin-6-yl)urea]: 0.4 nM; for `C[C@@H](NC(=O)Nc1cc2[nH]nc(NCC3CCC3)c2cn1)c1ccccc1` [Example 213, 1-{3-[(cyclobutylmethyl)amino]-1H-pyrazolo[4,3-c]-pyridin-6-yl}-3-[(1R)-1-phenylethyl]urea]: 2.2 nM; for `C[C@@H](NC(=O)Nc1cc2[nH]nc(N3CC4CC3CO4)c2cn1)c1ccccc1` (stereo partly drawn) [Example 449, 1-[3-(2-oxa-5-azabicyclo[2.2.1]-hept-5-yl)-1H-pyrazolo[4,3-c]-pyridin-6-yl]-3-[(1R)-1-phenylethyl]urea]: 6 nM.

As for `Nc1n[nH]c2cc(NC(=O)NC3COc4ccccc4C3)ncc12` (centres unmarked) [Example 257, 1-(3-amino-1H-pyrazolo[4,3-c]pyridin-6-yl)-3-(3,4-dihydro-2H-chromen-3-yl)urea], the IC50 is 37.1 nM. `CC(C)Nc1n[nH]c2cc(NC(=O)N[C@H](C)c3ccc(F)cc3)ncc12` [Example 340, (R)-1-(1-(4-fluorophenyl)ethyl)-3-(3-(isopropyl-amino)-1H-pyrazolo[4,3-c]-pyridin-6-yl)urea]: the IC50 was 1.6 nM. Same read-out and setting: the same measure for `Nc1n[nH]c2cc(NC(=O)NC3CCCC3c3ccccc3)ncc12` (centres unmarked) [Example 261, 1-(3-amino-1H-pyrazolo[4,3-c]-pyridin-6-yl)-3-(2-phenylcyclopentyl)urea]: 6 nM; for `C[C@@H]1CN(c2n[nH]c3cc(NC(=O)N[C@@H](c4ccccc4)C(C)(C)O)ncc23)C[C@H](C)O1` [Example 436, 1-{3-[(2R,6S)-2,6-dimethylmorpholin-4-yl]-1H-pyrazolo[4,3-c]-pyridin-6-yl}-3-[(1S)-2-hydroxy-2-methyl-1-phenylpropyl]urea]: 0.8 nM. As to `CCN1CCc2nc(NC(=O)N[C@H](C)c3ccccc3)cc3[nH]nc1c23` [Example 141, (R)-1-(3-ethyl-1,3,4,5-tetrahydropyrazolo[3,4,5-de][1,6]naphthyridin-7-yl)-3-(1-phenylethyl)urea], the IC50 came out at 15.4 nM. Still for that read-out and setting: the same measure for `Nc1n[nH]c2cc(NC(=O)NCc3ccc(F)c(Cl)c3)ncc12` [Example 264, 1-(3-amino-1H-pyrazolo[4,3-c]-pyridin-6-yl)-3-(3-chloro-4-fluorobenzyl)urea]: 940 nM. The same measure, in the same setting: the same measure for `CNc1n[nH]c2cc(NC(=O)N[C@@H](c3ccccc3)[C@H]3CCCO3)ncc12` [Example 145, 1-(3-(methylamino)-1H-pyrazolo[4,3-c]pyridin-6-yl)-3-((S)-phenyl((R)-tetrahydrofuran-2-yl)methyl)urea]: 2.1 nM; for `Nc1n[nH]c2cc(NC(=O)NCc3ccccc3OC(F)F)ncc12` [Example 267, 1-(3-amino-1H-pyrazolo[4,3-c]pyridin-6-yl)-3-[2-(difluoro-methoxy)benzyl]-urea]: 5.3 nM. As for `C[C@@H](NC(=O)Nc1cc2[nH]nc(NC3CCCOC3)c2cn1)c1ccccc1` (stereo partly drawn) [Example 174, 1-[(1R)-1-phenylethyl]-3-[3-(tetrahydro-2H-pyran-3-ylamino)-1H-pyrazolo[4,3-c]pyridin-6-yl]urea], the IC50 was 4.4 nM. On the same count and under the same terms, the same measure for `C[C@@H](NC(=O)Nc1cc2[nH]nc(NC3CCC(F)(F)CC3)c2cn1)c1ccccc1` [Example 195, 1-{3-[(4,4-difluorocyclohexyl)amino]-1H-pyrazolo[4,3-c]-pyridin-6-yl}-3-[(1R)-1-phenylethyl]urea]: 10.2 nM. Take `CCNc1n[nH]c2c(C(F)(F)F)c(NC(=O)N[C@H](C)c3ccccc3)ncc12` [Example 135, (R)-1-(3-(ethylamino)-7-(trifluoromethyl)-1H-pyrazolo[4,3-c]pyridin-6-yl)-3-(1-phenylethyl)urea]: the IC50 worked out at 382 nM. `C[C@@H](NC(=O)Nc1cc2[nH]nc(N3CC(C)(O)C3)c2cn1)c1ccccc1` [Example 92, 1-[3-(3-hydroxy-3-methylazetidin-1-yl)-1H-pyrazolo[4,3-c]-pyridin-6-yl]-3-[(1R)-1-phenylethyl]urea]: the IC50 amounted to 27.3 nM. On the same count and under the same terms, the same measure for `CCNc1n[nH]c2cc(NC(=O)NCc3c(F)cccc3Cl)ncc12` [Example 244, 1-(2-chloro-6-fluorobenzyl)-3-[3-(ethylamino)-1H-pyrazolo[4,3-c]-pyridin-6-yl]urea]: 10.8 nM; for `[2H]C([2H])([2H])C([2H])([2H])Nc1n[nH]c2cc(NC(=O)N[C@H](C)c3ccccc3)ncc12` [Example 113, (R)-1-(3-((ethyl-D5)amino)-1H-pyrazolo[4,3-c]-pyridin-6-yl)-3-(1-phenylethyl)urea]: 1.6 nM; for `O=C(Nc1cc2[nH]nc(NC(=O)N3CC(F)(F)C3)c2cn1)N[C@H]1c2ccccc2OCC[C@H]1O` [Example 396]: 0.3 nM.

For `Nc1n[nH]c2cc(NC(=O)NC3CNc4ccccc4C3)ncc12` (centres unmarked) [Example 256, 1-(3-amino-1H-pyrazolo[4,3-c]pyridin-6-yl)-3-(1,2,3,4-tetrahydro-quinolin-3-yl)urea], the concentration for half-maximal inhibition (IC50) is 37.5 nM.

As to `C[C@@H](O)[C@@H](NC(=O)Nc1cc2[nH]nc(N3CCc4nn(C)cc4C3)c2cn1)c1ccccc1` [Example 393, 1-[(1S,2R)-2-hydroxy-1-phenylpropyl]-3-(2′-methyl-2′,4′,6′,7′-tetrahydro-1H-3,5′-bipyrazolo[4,3-c]-pyridin-6-yl)urea], the IC50 stood at 0.4 nM. On the same count and under the same terms, the same measure for `CC(C)CNc1n[nH]c2cc(NC(=O)N[C@H](C)c3ccccc3)ncc12` [Example 189, 1-{3-[(2-methylpropyl)-amino]-1H-pyrazolo[4,3-c]-pyridin-6-yl}-3-[(1R)-1-phenylethyl]urea]: 1.7 nM; for `Cc1nc(NC(=O)N[C@@H](c2ccc(F)cc2)[C@@H](C)O)cc2[nH]nc(N3CCOCC3)c12` [Example 106, 1-((1S,2R)-1-(4-Fluorophenyl)-2-hydroxypropyl)-3-(4-methyl-3-morpholino-1H-pyrazolo[4,3-c]pyridin-6-yl)urea]: 0.5 nM; for `C[C@@H](NC(=O)Nc1cc2[nH]nc(NC(=O)N[C@H](C)c3ccc(Cl)c(C(F)(F)F)c3)c2cn1)c1ccc(Cl)c(C(F)(F)F)c1` [Example 310, N′,N″′-1H-pyrazolo[4,3-c]-pyridine-3,6-diylbis(1-{(1R)-1-[4-chloro-3-(trifluoromethyl)-phenyl]ethyl}urea)]: 2450 nM.

As for `CCNc1n[nH]c2cc(NC(=O)N[C@H](C)c3ccccc3)nc(C)c12` [Example 331, (R)-1-(3-(ethylamino)-4-methyl-1H-pyrazolo[4,3-c]pyridin-6-yl)-3-(1-phenylethyl)urea], the IC50 stood at 2.9 nM.

With `CCNc1n[nH]c2cc(NC(=O)N[C@H](C)c3ccccc3)nc(COC)c12` [Example 71, (R)-1-(3-(ethylamino)-4-(methoxymethyl)-1H-pyrazolo[4,3-c]pyridin-6-yl)-3-(1-phenylethyl)urea], the half-inhibitory concentration (IC50) was 4.4 nM. As for `CCNc1n[nH]c2cc(NC(=O)NCc3c(F)cccc3OC)ncc12` [Example 242, 1-[3-(ethylamino)-1H-pyrazolo[4,3-c]pyridin-6-yl]-3-(2-fluoro-6-methoxybenzyl)-urea], the IC50 stood at 2.4 nM. With `C[C@H]1CN(c2n[nH]c3cc(NC(=O)N[C@@H](c4ccccc4)C(C)(C)O)ncc23)C[C@H](C(F)(F)F)O1` [Example 102, 1-[(1S)-2-hydroxy-2-methyl-1-phenylpropyl]-3-{3-[(2S,6R)-2-methyl-6-(trifluoromethyl)-morpholin-4-yl]-1H-pyrazolo[4,3-c]-pyridin-6-yl}urea], the half-maximal inhibitory concentration (IC50) turned out to be 2.7 nM.
